What was measured:
Assay type in all cases: cell-based, human
granulocytes [1] = assay: aberrant enzyme activities in febrile children, granulocytes (Table 7)
monocytes [2] = assay: enzyme activity with fluorogenic substrate, normal monocytes (Table 3A)
lymphocytes [3] = assay: aberrant enzyme activities in febrile children, lymphocytes (Table 7)
granulocytes [4] = assay: enzyme activity with fluorogenic substrate, normal granulocytes (Table 3A)
monocytes [5] = assay: aberrant enzyme activities in febrile children, monocytes (Table 7)
lymphocytes [6] = assay: enzyme activity with fluorogenic substrate, normal lymphocytes (Table 3A)
[7] = P89 Viral Stomatitis, listed as Val/Lys-M
[8] = P95 Viral Syndrome, listed as Val/Lys-M
[9] = P96 Viral Syndrome, listed as Val/Lys-M
[10] = P97 Pyelonephritis, listed as Val/Lys-M
[11] = P88 Enteritis, listed as Z-Gly/Pro-M

CC(C)[C@H](N)C(=O)N[C@@H](CCCCN)C(=O)Nc1ccc2c(c1)Oc1cc(NC(=O)[C@H](CCCCN)NC(=O)[C@@H](N)C(C)C)ccc1C21OC(=O)c2ccccc21 [VK-M, (Val-Lys)2 Rho 110 (modified)]
aberrant enzyme activity, GRANS (granulocytes [1]; P88 Enteritis): - (>0.25 Decrease over normal range) | aberrant enzyme activity, GRANS (granulocytes [1]; [7]): .smallcircle. | aberrant enzyme activity, GRANS (granulocytes [1]; P92 Adenitis): .smallcircle. | aberrant enzyme activity, GRANS (granulocytes [1]; [8]): + (>0.25 Increase over normal range) | aberrant enzyme activity, GRANS (granulocytes [1]; [9]): + (>0.25 Increase over normal range) | aberrant enzyme activity, GRANS (granulocytes [1]; [10]): .smallcircle. | aberrant enzyme activity, GRANS (granulocytes [1]; P101 Fever -- Unknown Origin): .smallcircle. | aberrant enzyme activity, GRANS (granulocytes [1]; P102 UTI, listed as Val/Lys-M): - (>0.25 Decrease over normal range) | aberrant enzyme activity, GRANS (granulocytes [1]; P103 Viral Syndrome): .smallcircle. | NORMAL LEUKOCYTE ENZYME ACTIVITY MONOS Mean (monocytes [2]): 43.37 | aberrant enzyme activity, LYMPHS (lymphocytes [3]; P88 Enteritis): .smallcircle. | aberrant enzyme activity, LYMPHS (lymphocytes [3]; P89 Viral Stomatitis): .smallcircle. | aberrant enzyme activity, LYMPHS (lymphocytes [3]; P92 Adenitis): .smallcircle. | aberrant enzyme activity, LYMPHS (lymphocytes [3]; [8]): + (>0.25 Increase over normal range) | aberrant enzyme activity, LYMPHS (lymphocytes [3]; [9]): + (>0.25 Increase over normal range) | aberrant enzyme activity, LYMPHS (lymphocytes [3]; [10]): + (>0.25 Increase over normal range) | aberrant enzyme activity, LYMPHS (lymphocytes [3]; P101 Fever -- Unknown Origin): .smallcircle. | aberrant enzyme activity, LYMPHS (lymphocytes [3]; P102 UTI): .smallcircle. | aberrant enzyme activity, LYMPHS (lymphocytes [3]; P103 Viral Syndrome): .smallcircle. | NORMAL LEUKOCYTE ENZYME ACTIVITY GRANS Mean (granulocytes [4]): 4.31 | aberrant enzyme activity, MONOS (monocytes [5]; P88 Enteritis): - (>0.25 Decrease over normal range) | aberrant enzyme activity, MONOS (monocytes [5]; [7]): .smallcircle. | aberrant enzyme activity, MONOS (monocytes [5]; P92 Adenitis, listed as Val/Lys-M): - (>0.25 Decrease over normal range) | aberrant enzyme activity, MONOS (monocytes [5]; P95 Viral Syndrome): .smallcircle. | aberrant enzyme activity, MONOS (monocytes [5]; P96 Viral Syndrome): .smallcircle. | aberrant enzyme activity, MONOS (monocytes [5]; P97 Pyelonephritis): .smallcircle. | aberrant enzyme activity, MONOS (monocytes [5]; P101 Fever -- Unknown Origin, listed as Val/Lys-M): - (>0.25 Decrease over normal range) | aberrant enzyme activity, MONOS (monocytes [5]; P102 UTI): - (>0.25 Decrease over normal range) | aberrant enzyme activity, MONOS (monocytes [5]; P103 Viral Syndrome, listed as Val/Lys-M): .smallcircle. | NORMAL LEUKOCYTE ENZYME ACTIVITY LYMPHS Mean (lymphocytes [6]): 2.05

O=C(NCC(=O)N1CCC[C@H]1C(=O)Nc1ccc2c(c1)Oc1cc(NC(=O)[C@@H]3CCCN3C(=O)CNC(=O)OCc3ccccc3)ccc1C21OC(=O)c2ccccc21)OCc1ccccc1 [Z-GP-M, (carbobenzyloxycarbonyl-Gly-Pro)2 Rho 110 (modified)]
aberrant enzyme activity, GRANS (granulocytes [1]; [11]): - (>0.25 Decrease over normal range) | aberrant enzyme activity, GRANS (granulocytes [1]; P92 Adenitis): - (>0.25 Decrease over normal range) | aberrant enzyme activity, GRANS (granulocytes [1]; P97 Pyelonephritis): .smallcircle. | aberrant enzyme activity, GRANS (granulocytes [1]; P103 Viral Syndrome): .smallcircle. | NORMAL LEUKOCYTE ENZYME ACTIVITY MONOS Mean (monocytes [2]): 119.81 | aberrant enzyme activity, LYMPHS (lymphocytes [3]; [11]): - (>0.25 Decrease over normal range) | aberrant enzyme activity, LYMPHS (lymphocytes [3]; P89 Viral Stomatitis): - (>0.25 Decrease over normal range) | aberrant enzyme activity, LYMPHS (lymphocytes [3]; P92 Adenitis): - (>0.25 Decrease over normal range) | aberrant enzyme activity, LYMPHS (lymphocytes [3]; P97 Pyelonephritis, listed as Z-Gly/Pro-M): - (>0.25 Decrease over normal range) | aberrant enzyme activity, LYMPHS (lymphocytes [3]; P103 Viral Syndrome): - (>0.25 Decrease over normal range) | NORMAL LEUKOCYTE ENZYME ACTIVITY GRANS Mean (granulocytes [4]): 130.62 | aberrant enzyme activity, MONOS (monocytes [5]; [11]): - (>0.25 Decrease over normal range) | aberrant enzyme activity, MONOS (monocytes [5]; P89 Viral Stomatitis): .smallcircle. | aberrant enzyme activity, MONOS (monocytes [5]; P92 Adenitis): - (>0.25 Decrease over normal range) | aberrant enzyme activity, MONOS (monocytes [5]; P97 Pyelonephritis): .smallcircle. | aberrant enzyme activity, MONOS (monocytes [5]; P103 Viral Syndrome): .smallcircle. | NORMAL LEUKOCYTE ENZYME ACTIVITY LYMPHS Mean (lymphocytes [6]): 53.74

C[C@@H](O)[C@H](NC(=O)OCc1ccccc1)C(=O)N1CCC[C@H]1C(=O)Nc1ccc2c(c1)Oc1cc(NC(=O)[C@@H]3CCCN3C(=O)[C@@H](NC(=O)OCc3ccccc3)[C@@H](C)O)ccc1C21OC(=O)c2ccccc21 [Z-TP6.5M]
aberrant enzyme activity, GRANS (granulocytes [1]; P92 Adenitis): - (>0.25 Decrease over normal range) | aberrant enzyme activity, GRANS (granulocytes [1]; P97 Pyelonephritis): .smallcircle. | aberrant enzyme activity, GRANS (granulocytes [1]; P103 Viral Syndrome): .smallcircle. | NORMAL LEUKOCYTE ENZYME ACTIVITY MONOS Mean (monocytes [2]): 45.70 | aberrant enzyme activity, LYMPHS (lymphocytes [3]; P92 Adenitis): - (>0.25 Decrease over normal range) | aberrant enzyme activity, LYMPHS (lymphocytes [3]; P97 Pyelonephritis): .smallcircle. | aberrant enzyme activity, LYMPHS (lymphocytes [3]; P103 Viral Syndrome): .smallcircle. | NORMAL LEUKOCYTE ENZYME ACTIVITY GRANS Mean (granulocytes [4]): 55.07 | aberrant enzyme activity, MONOS (monocytes [5]; P92 Adenitis): - (>0.25 Decrease over normal range) | aberrant enzyme activity, MONOS (monocytes [5]; P97 Pyelonephritis): .smallcircle. | aberrant enzyme activity, MONOS (monocytes [5]; P103 Viral Syndrome): .smallcircle. | NORMAL LEUKOCYTE ENZYME ACTIVITY LYMPHS Mean (lymphocytes [6]): 20.62

C[C@@H](O)[C@H](NC(=O)OCc1ccccc1)C(=O)N1CCC[C@H]1C(=O)Nc1ccc2c(c1)Oc1cc(NC(=O)[C@@H]3CCCN3C(=O)[C@@H](NC(=O)OCc3ccccc3)[C@@H](C)O)ccc1C21OC(=O)c2ccccc21 [Z-TP 8.7-M]
aberrant enzyme activity, GRANS (granulocytes [1]; P92 Adenitis): - (>0.25 Decrease over normal range) | aberrant enzyme activity, GRANS (granulocytes [1]; P97 Pyelonephritis): .smallcircle. | aberrant enzyme activity, GRANS (granulocytes [1]; P103 Viral Syndrome): .smallcircle. | NORMAL LEUKOCYTE ENZYME ACTIVITY MONOS Mean (monocytes [2]): 71.45 | aberrant enzyme activity, LYMPHS (lymphocytes [3]; P92 Adenitis): - (>0.25 Decrease over normal range) | aberrant enzyme activity, LYMPHS (lymphocytes [3]; P97 Pyelonephritis): .smallcircle. | aberrant enzyme activity, LYMPHS (lymphocytes [3]; P103 Viral Syndrome): .smallcircle. | NORMAL LEUKOCYTE ENZYME ACTIVITY GRANS Mean (granulocytes [4]): 80.16 | aberrant enzyme activity, MONOS (monocytes [5]; P92 Adenitis): - (>0.25 Decrease over normal range) | aberrant enzyme activity, MONOS (monocytes [5]; P97 Pyelonephritis): .smallcircle. | aberrant enzyme activity, MONOS (monocytes [5]; P103 Viral Syndrome): .smallcircle. | NORMAL LEUKOCYTE ENZYME ACTIVITY LYMPHS Mean (lymphocytes [6]): 30.99

— patent publication US5698411A, “Method for determining activity of enzymes in metabolically active whole cells” (priority 1995, dated 1997)
